“Also recorded” adds a separate entry of the source.

In one assay the target is SHP2 (D2C) (Homo sapiens (Human), UniProt Q06124). Briefly: SHP2 (D2C) pNPP inhibition assay, hits of library 7′a-c. It is filed as biochemical. The conditions noted are these: for IC50: pNPP substrate, pH 7, 25° C., library 7′a / 7′c hits. The procedure: These three libraries were further screened at 10 μM for SHP2. […] Three pairs of hits bearing the same amine scaffold from library 7′a and 7′c were resynthesized and purified by HPLC. […] (Table 1).
In this Example, SHP2 (D2C) was used to transform into E. coli BL21/DE3 and grown in LB medium containing 50 μg/ml kanamycin at 37° C. to an OD600 of 0.4. Following the addition of IPTG to a final concentration of 20 μM, the culture was incubated at 20° C. with shaking for an additional 16 hours. The cells were harvested by centrifugation at 5000 rpm for 5 minutes at 4° C. The bacterial cell pellets were resuspended in 20 mM Tris, pH 7.9, 500 mM NaCl, 5 mM imidazole, and were lysed by passage through a French press cell at 1,200 psi twice. Cellular debris was removed by centrifugation at 16,000 rpm for 30 minutes at 4° C. The protein was purified from the supernatant using standard procedures of Ni-nitrilotriacetic acid-agarose (Qiagen) affinity purification. The protein eluted from Ni-NTA column was concentrated with an Amicon Ultra centrifugal filter device (Millipore) and the buffer was changed to 20 mM Tris, pH 7.5, 150 mM NaCl, 1 mM EDTA and 1 mM DTT. Protein concentration was determined using the Bradford dye binding assay (Bio-Rad) diluted according to the manufacturer's recommendations with bovine serum albumin as standard. The purified SHP 2 (D2C) were made to 30% glycerol and stored at −20° C.
Inhibition Study: The inhibition assays were performed at 25° C. in 50 mM 3,3-dimethylglutarate buffer, pH 7.0, containing 1 mM EDTA with an ionic strength of 0.15M adjusted by NaCl. The salicylic acid based library was screened in a 96-well format at 10 μM compound concentration. […] The reaction was quenched after 10 minutes by the addition of 50 μl of 5N NaOH, and then this reaction mixture was detected for absorbance at 405 nm by a Spectra MAX340 microplate spectrophotometer (Molecular Devices). IC50 values were calculated by fitting the absorbance at 405 nm versus inhibitor concentration to the following equation: AI/A0=IC50/(IC50+[I]) where AI is the absorbance at 405 nm of the sample in the presence of inhibitor; A0 is the absorbance at 405 nm in the absence of inhibitor; and [I] is the concentration of the inhibitor.

A further assay has as its system Paxillin (pY118). Briefly: Paxillin (pY118) phosphorylation in H1975 cells (immunoblot). It is filed as cell-based, human. Particulars: 2 μM. How it is done:
(§1) For biochemical studies, H1975 cells were serum-starved overnight followed by treatment with vehicle or compound 11a-1 for 3 hours, and then either left unstimulated or stimulated with 5 ng/ml EGF (Sigma, St. Louis, Mo.) for 60 minutes. Lysates were then resolved by SDS-PAGE and the protein phosphorylation levels were detected by immunoblot analysis. Specifically, cells were lysed in lysis buffer (1.0% Nonidet P-40, 50 mM Tris-HCl (pH 7.4), 150 mM NaCl, 5 mM EDTA, 2 mM NaVO3, 10 mM NaF) plus a protease inhibitor mixture available from Roche (Basel, Switzerland) and centrifuged at 10,000 rpm for 5 minutes at 4° C. Supernatants were collected and protein concentration was determined using the BCA protein assay (ThermoFisher Scientific, Rockford, Ill.). Equal amount of protein extracts were mixed with gel loading buffer and separated on SDS-PAGE. After electrophoresis, the proteins were transferred onto nitrocellulose membranes and nonspecific binding was blocked with 5% nonfat dry milk in Tris-buffered saline containing 0.1% Tween-20 (TBS-T). Membranes were then probed with various antibodies overnight at 4° C. on a rocker. After incubation, membranes were washed with TBS-T and incubated with appropriate horseradish peroxidase (HRP)-conjugated secondary antibodies for 1 hour at room temperature. Finally, the proteins on the membranes were detected using SuperSignal West Dura Luminol/Enhancer solution (ThermoFisher Scientific, Rockford, Ill.) and membranes were analyzed using Bio-Rad ChemiDoc XRS Imaging System.
For orientation: In western blotting, separated proteins are transferred to a membrane and probed.

The target in another assay is SHP2 (Homo sapiens (Human), UniProt Q06124). Briefly: SHP2-catalyzed hydrolysis of p-nitrophenyl phosphate (pNPP). It is filed as biochemical. Particulars: pNPP substrate, pH 7.0, 25° C. The procedure:
Libraries 11a-d were screened at ˜5 μM for SHP2 inhibitors without further purification. The ability of the library components to inhibit the SHP2-catalyzed hydrolysis of p-nitrophenyl phosphate (pNPP) was evaluated at pH 7.0 and 25° C. More particularly, the phosphatase activity of SHP2 was assayed using p-nitrophenyl phosphate (pNPP) as a substrate at 25° C. in 50 mM 3,3-dimethylglutarate buffer, pH 7.0, containing 1 mM EDTA with an ionic strength of […] adjusted by NaCl. The libraries were screened in a 96-well format at 5 μM compound concentration. […] The nonenzymatic hydrolysis of pNPP was corrected by measuring the control without the addition of enzyme. The amount of product p-nitrophenol was determined from the absorbance at 405 nm detected by a Spectra MAX340 microplate spectrophotometer (Molecular Devices, Sunnyvale, Calif.) using a molar extinction coefficient of 18,000 M^−1 cm^−1. […] IC50 values for selected resynthesized and purified hits were calculated by fitting the absorbance at 405 nm versus inhibitor concentration to the following equation: AI/A0=IC50/(IC50+[I]) where AI is the absorbance at 405 nm of the sample in the presence of the inhibitor; A0 is the absorbance at 405 nm in the absence of inhibitor; and [I] is the concentration of the inhibitor.

The test system of assay [1] is EGF-induced Erk1/2 phosphorylation. Briefly: EGF-induced Erk1/2 phosphorylation in H1975 cells (immunoblot). The assay is classed as cell-based, human. The conditions noted are these: H1975 cells, 2 μM. The procedure: as §1

SHP2, sequence (Q06124 whole entry, looked up): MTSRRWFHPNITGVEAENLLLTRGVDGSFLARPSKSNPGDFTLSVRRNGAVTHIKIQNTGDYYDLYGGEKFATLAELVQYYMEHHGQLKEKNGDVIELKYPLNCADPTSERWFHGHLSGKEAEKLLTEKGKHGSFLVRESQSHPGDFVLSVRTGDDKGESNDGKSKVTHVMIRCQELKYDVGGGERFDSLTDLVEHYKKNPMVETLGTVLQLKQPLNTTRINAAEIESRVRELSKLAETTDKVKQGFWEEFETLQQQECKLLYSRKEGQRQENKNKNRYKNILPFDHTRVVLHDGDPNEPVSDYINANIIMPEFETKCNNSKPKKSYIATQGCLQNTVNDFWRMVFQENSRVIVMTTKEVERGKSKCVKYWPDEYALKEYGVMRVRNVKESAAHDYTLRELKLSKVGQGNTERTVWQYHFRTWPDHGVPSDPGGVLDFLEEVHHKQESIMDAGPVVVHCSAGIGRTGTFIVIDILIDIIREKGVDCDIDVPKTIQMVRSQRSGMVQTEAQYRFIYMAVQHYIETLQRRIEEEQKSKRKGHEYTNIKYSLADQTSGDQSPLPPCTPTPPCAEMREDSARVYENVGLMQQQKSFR
SHP2 (D2C), sequence (Q06124 240-528): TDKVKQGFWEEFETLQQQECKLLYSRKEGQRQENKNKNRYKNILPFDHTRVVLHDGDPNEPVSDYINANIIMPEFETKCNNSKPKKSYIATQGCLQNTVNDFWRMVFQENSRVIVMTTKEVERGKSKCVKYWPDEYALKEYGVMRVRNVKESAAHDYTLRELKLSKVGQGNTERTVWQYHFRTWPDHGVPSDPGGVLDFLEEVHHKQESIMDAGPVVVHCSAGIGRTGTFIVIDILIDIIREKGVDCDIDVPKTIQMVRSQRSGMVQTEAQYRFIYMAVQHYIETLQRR

As usually defined, the IC50 is the midpoint of a concentration-inhibition curve. A lower IC50 goes with greater potency in that assay. With `Cn1c(-c2ccc(C(=O)O)cc2)c(I)c2cc(C(=O)O)c(O)cc21` [7′c, 2-(4-carboxyphenyl)-6-hydroxy-3-iodo-1-methyl-1H-indole-5-carboxylic acid], the half-maximal inhibitory concentration (IC50) at SHP2 (D2C) amounted to 9.2 ± 0.5 µM.

For `Cn1c(-c2cccc(NC(=O)C(=O)O)c2)c(I)c2cc(C(=O)O)c(O)cc21` [10a, 2-(3-(carboxyformamido)phenyl)-6-hydroxy-3-iodo-1-methyl-1H-indole-5-carboxylic acid], the “effect on Paxillin phosphorylation, in words” value in the assay with Paxillin (pY118) is listed as “no effect”. Moreover, on SHP2, the concentration for half-maximal inhibition (IC50) was 14.4 µM. Besides, in assay [1], the “effect on Erk1/2 phosphorylation (SHP2 dependent signaling), in words” value is on record as “no effect; also recorded: failed to block”.

On SHP2 (D2C), `Cn1c(-c2ccc(C(=O)Nc3cccc(OCc4ccccc4)c3)cc2)c(I)c2cc(C(=O)O)c(O)cc21` [7′c-1, 2-(4-((3-(benzyloxy)phenyl)carbamoyl)phenyl)-6-hydroxy-3-iodo-1-methyl-1H-indole-5-carboxylic acid] came in with an IC50 of 2.4 ± 0.1 µM.

The molecule `Cn1c(CCCC(=O)NCc2ccc3c(c2)OCO3)c(I)c2cc(C(=O)O)c(O)cc21` [7′a-2, 2-(4-((benzo[d][1,3]dioxol-5-ylmethyl)amino)-4-oxobutyl)-6-hydroxy-3-iodo-1-methyl-1H-indole-5-carboxylic acid] displayed a half-maximal inhibitory concentration (IC50) against SHP2 (D2C) of 12.6 ± 2.8 µM.

With `Cn1c(-c2ccc(C(=O)Nc3ccc(OCc4ccccc4)c(Cl)c3)cc2)c(I)c2cc(C(=O)O)c(O)cc21` [7′c-3, 2-(4-((4-(benzyloxy)-3-chlorophenyl)carbamoyl)phenyl)-6-hydroxy-3-iodo-1-methyl-1H-indole-5-carboxylic acid], at SHP2 (D2C), the “potency for SHP2 relative to 7′a-3” value amounted to 12 fold and half-maximal inhibition (IC50) was put at 1.6 µM.

Take `Cn1c(-c2cccc(NC(=O)C(=O)Nc3nccs3)c2)c(I)c2cc(C(=O)O)c(O)cc21` [11a-16, 6-hydroxy-3-iodo-1-methyl-2-(3-(2-oxo-2-(thiazol-2-ylamino)acetamido)phenyl)-1H-indole-5-carboxylic acid]: it took 2.31 ± 0.28 µM to reach half-maximal inhibition at SHP2 (IC50).

As for `Cn1c(CCCC(=O)Nc2cccc(OCc3ccccc3)c2)c(I)c2cc(C(=O)O)c(O)cc21` [7′a-1, 2-(4-((3-(benzyloxy)phenyl)amino)-4-oxobutyl)-6-hydroxy-3-iodo-1-methyl-1H-indole-5-carboxylic acid], the 50% inhibitory concentration (IC50) against SHP2 (D2C) worked out at 5 ± 0.3 µM.

`Cn1c(CCCC(=O)Nc2ccc(OCc3ccccc3)c(Cl)c2)c(I)c2cc(C(=O)O)c(O)cc21` [7′a-3, 2-(4-((4-(benzyloxy)-3-chlorophenyl)amino)-4-oxobutyl)-6-hydroxy-3-iodo-1-methyl-1H-indole-5-carboxylic acid] yielded a half-inhibitory concentration (IC50) against SHP2 (D2C) above 20 µM.

`Cn1c(-c2cccc(NC(=O)C(=O)Nc3nc4ccc(Br)cc4s3)c2)c(I)c2cc(C(=O)O)c(O)cc21` [11a-4, 2-(3-(2-((6-bromobenzo[d]thiazol-2-yl)amino)-2-oxoacetamido)phenyl)-6-hydroxy-3-iodo-1-methyl-1H-indole-5-carboxylic acid] came in with an IC50 against SHP2 of 0.76 ± 0.11 µM.

Turning to `Cn1c(-c2cccc(NC(=O)C(=O)Nc3ccc(-c4cccc(C#N)c4)cc3)c2)c(I)c2cc(C(=O)O)c(O)cc21` [11a-22, 2-(3-(2-((3′-cyano-[1,1′-biphenyl]-4-yl)amino)-2-oxoacetamido)phenyl)-6-hydroxy-3-iodo-1-methyl-1H-indole-5-carboxylic acid], the IC50 at SHP2 was found to be 0.31 ± 0.02 µM.

In turn, `Cn1c(CCCC(=O)O)c(I)c2cc(C(=O)O)c(O)cc21` [7′a, 2-(3-carboxypropyl)-6-hydroxy-3-iodo-1-methyl-1H-indole-5-carboxylic acid] showed an IC50 against SHP2 (D2C) above 20 µM.

As for `Cn1c(-c2cccc(NC(=O)CCC(=O)Nc3nccs3)c2)c(I)c2cc(C(=O)O)c(O)cc21` [11c-11, 6-hydroxy-3-iodo-1-methyl-2-(3-(4-oxo-4-(thiazol-2-ylamino)butanamido)phenyl)-1H-indole-5-carboxylic acid], the IC50 on SHP2 amounted to 26 ± 5 µM.

Turning to `Cn1c(-c2cccc(NC(=O)C(=O)Nc3nnc(-c4ccccc4)s3)c2)c(I)c2cc(C(=O)O)c(O)cc21` [11a-14, 6-hydroxy-3-iodo-1-methyl-2-(3-(2-oxo-2-((5-phenyl-1,3,4-thiadiazol-2-yl)amino)acetamido)phenyl)-1H-indole-5-carboxylic acid], half-maximal inhibition at SHP2 (IC50) was put at 1.79 ± 0.15 µM.

Consider `Cn1c(-c2cccc(NC(=O)CCC(=O)Nc3ccc(OCc4ccccc4)c(Cl)c3)c2)c(I)c2cc(C(=O)O)c(O)cc21` [11c-3, 2-(3-(4-((4-(benzyloxy)-3-chlorophenyl)amino)-4-oxobutanamido)phenyl)-6-hydroxy-3-iodo-1-methyl-1H-indole-5-carboxylic acid], for which the IC50 against SHP2 is 5 ± 0.9 µM.

The molecule `Cn1c(-c2cccc(NC(=O)CCC(=O)O)c2)c(I)c2cc(C(=O)O)c(O)cc21` [10c, 2-(3-(3-carboxypropanamido)phenyl)-6-hydroxy-3-iodo-1-methyl-1H-indole-5-carboxylic acid] showed a half-inhibitory concentration (IC50) against SHP2 of 56 µM.

`Cn1c(-c2cccc(NC(=O)C(=O)Nc3cccc(F)c3)c2)c(I)c2cc(C(=O)O)c(O)cc21` [11a-19, 2-(3-(2-((3-fluorophenyl)amino)-2-oxoacetamido)phenyl)-6-hydroxy-3-iodo-1-methyl-1H-indole-5-carboxylic acid]: the IC50 against SHP2 was 4.66 ± 0.5 µM.

On SHP2, `Cn1c(-c2cccc(NC(=O)CCC(=O)Nc3ccc(Oc4ccccc4)cc3)c2)c(I)c2cc(C(=O)O)c(O)cc21` [11c-2, 6-hydroxy-3-iodo-1-methyl-2-(3-(4-oxo-4-((4-phenoxyphenyl)amino)butanamido)phenyl)-1H-indole-5-carboxylic acid] displayed an IC50 of 3.6 ± 0.3 µM.

Source of the values: patent US9522881B2, “Hydroxyindole carboxylic acid based inhibitors for oncogenic Src homology-2 domain containing protein tyrosine phosphatase-2 (SHP2)” (Indiana University Research and Technology Corporation, priority 2013, dated 2016).
